Measurements taken from PubChem BioAssay (NCI).
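Briefly, cells in 96-well plates were exposed to five compound concentrations for 48 h, and endpoints were estimated by linear interpolation. At the GI50, growth is halved. TGI is the concentration that stops growth completely.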

Key:
Experiment in all cases: NCI anticancer screen, dose series, 48 h
LOX IMVI melanoma = test system: LOX IMVI melanoma
U251 CNS = test system: U251 CNS
A498 renal = test system: A498 renal
ACHN renal = test system: ACHN renal
NCI-H226 lung = test system: NCI-H226 lung
NCI/ADR-RES ovarian = test system: NCI/ADR-RES ovarian
HS 578T breast = test system: HS 578T breast
TK-10 renal = test system: TK-10 renal
UO-31 renal = test system: UO-31 renal
PC-3 prostate = test system: PC-3 prostate
T-47D breast = test system: T-47D breast
M14 melanoma = test system: M14 melanoma
MDA-MB-435 = test system: MDA-MB-435
SF-295 CNS = test system: SF-295 CNS
SF-539 CNS = test system: SF-539 CNS
SR leukemia = test system: SR leukemia
UACC-257 melanoma = test system: UACC-257 melanoma
SK-MEL-2 melanoma = test system: SK-MEL-2 melanoma
HL-60(TB) leukemia = test system: HL-60(TB) leukemia
OVCAR-3 ovarian = test system: OVCAR-3 ovarian
HCC-2998 colon = test system: HCC-2998 colon
SNB-19 CNS = test system: SNB-19 CNS
IGROV1 ovarian = test system: IGROV1 ovarian
K-562 leukemia = test system: K-562 leukemia
HT29 colon = test system: HT29 colon
SW-620 colon = test system: SW-620 colon
MOLT-4 leukemia = test system: MOLT-4 leukemia
A549 NSCLC = test system: A549 NSCLC
NCI-H460 lung = test system: NCI-H460 lung
OVCAR-4 ovarian = test system: OVCAR-4 ovarian
HOP-92 NSCLC = test system: HOP-92 NSCLC
MCF7 breast = test system: MCF7 breast
OVCAR-5 ovarian = test system: OVCAR-5 ovarian
OVCAR-8 ovarian = test system: OVCAR-8 ovarian
HCT-116 colon = test system: HCT-116 colon
SK-OV-3 ovarian = test system: SK-OV-3 ovarian
SF-268 CNS = test system: SF-268 CNS
786-0 renal = test system: 786-0 renal
SK-MEL-28 melanoma = test system: SK-MEL-28 melanoma
SK-MEL-5 melanoma = test system: SK-MEL-5 melanoma
CCRF-CEM leukemia = test system: CCRF-CEM leukemia
RPMI-8226 leukemia = test system: RPMI-8226 leukemia
EKVX NSCLC = test system: EKVX NSCLC
MALME-3M melanoma = test system: MALME-3M melanoma
SNB-75 CNS = test system: SNB-75 CNS
RXF 393 renal = test system: RXF 393 renal
HOP-62 NSCLC = test system: HOP-62 NSCLC
BT-549 breast = test system: BT-549 breast
MDA-MB-231 breast = test system: MDA-MB-231 breast
NCI-H23 lung = test system: NCI-H23 lung
CAKI-1 renal = test system: CAKI-1 renal
HCT-15 colon = test system: HCT-15 colon
SN12C renal = test system: SN12C renal
UACC-62 melanoma = test system: UACC-62 melanoma
COLO 205 colon = test system: COLO 205 colon
KM12 colon = test system: KM12 colon
NCI-H522 lung = test system: NCI-H522 lung
DU-145 prostate = test system: DU-145 prostate
MDA-N = test system: MDA-N

COc1ccc2c(c1)c(-c1nc(-c3cn(C)c4ncccc34)cs1)cn2CCCCN1CCOCC1
GI50 (LOX IMVI melanoma): 1320 nM
TGI (LOX IMVI melanoma): 2680 nM
GI50 (U251 CNS): 1250 nM
TGI (U251 CNS): 2930 nM
GI50 (A498 renal): 164 nM
TGI (A498 renal): 1780 nM
GI50 (ACHN renal): 1590 nM
TGI (ACHN renal): 2990 nM
GI50 (NCI-H226 lung): 2530 nM
TGI (NCI-H226 lung): 8810 nM
GI50 (NCI/ADR-RES ovarian): 1720 nM
TGI (NCI/ADR-RES ovarian): 5050 nM
GI50 (HS 578T breast): 1220 nM
TGI (HS 578T breast): 5460 nM
GI50 (TK-10 renal): 2730 nM
TGI (TK-10 renal): 8190 nM
GI50 (UO-31 renal): 1200 nM
TGI (UO-31 renal): 2560 nM
GI50 (PC-3 prostate): 1120 nM
TGI (PC-3 prostate): 3260 nM
GI50 (T-47D breast): 7080 nM
TGI (T-47D breast): 29000 nM
GI50 (M14 melanoma): 606 nM
TGI (M14 melanoma): 1280 nM
GI50 (MDA-MB-435): 1120 nM
TGI (MDA-MB-435): 2580 nM
GI50 (SF-295 CNS): 1570 nM
TGI (SF-295 CNS): 3480 nM
GI50 (SF-539 CNS): 1560 nM
TGI (SF-539 CNS): 3020 nM
GI50 (SR leukemia): 724 nM
TGI (SR leukemia): 1980 nM
GI50 (UACC-257 melanoma): 1660 nM
TGI (UACC-257 melanoma): 3280 nM
GI50 (SK-MEL-2 melanoma): 2050 nM
TGI (SK-MEL-2 melanoma): 4290 nM
GI50 (HL-60(TB) leukemia): 1840 nM
TGI (HL-60(TB) leukemia): 4370 nM
GI50 (OVCAR-3 ovarian): 1620 nM
TGI (OVCAR-3 ovarian): 3380 nM
GI50 (HCC-2998 colon): 1730 nM
TGI (HCC-2998 colon): 3770 nM
GI50 (SNB-19 CNS): 1650 nM
TGI (SNB-19 CNS): 3490 nM
GI50 (IGROV1 ovarian): 2660 nM
TGI (IGROV1 ovarian): 10400 nM
GI50 (K-562 leukemia): 675 nM
TGI (K-562 leukemia): 1610 nM
GI50 (HT29 colon): 766 nM
TGI (HT29 colon): 1950 nM
GI50 (SW-620 colon): 745 nM
TGI (SW-620 colon): 1920 nM
GI50 (MOLT-4 leukemia): 951 nM
TGI (MOLT-4 leukemia): 2800 nM
GI50 (A549 NSCLC): 1710 nM
TGI (A549 NSCLC): 3710 nM
GI50 (NCI-H460 lung): 1190 nM
TGI (NCI-H460 lung): 2910 nM
GI50 (OVCAR-4 ovarian): 1710 nM
TGI (OVCAR-4 ovarian): 4940 nM
GI50 (HOP-92 NSCLC): 922 nM
TGI (HOP-92 NSCLC): 3590 nM
GI50 (MCF7 breast): 1710 nM
TGI (MCF7 breast): 3670 nM
GI50 (OVCAR-5 ovarian): 1680 nM
TGI (OVCAR-5 ovarian): 4030 nM
GI50 (OVCAR-8 ovarian): 2300 nM
TGI (OVCAR-8 ovarian): 5430 nM
GI50 (HCT-116 colon): 1800 nM
TGI (HCT-116 colon): 3910 nM
GI50 (SK-OV-3 ovarian): 4220 nM
TGI (SK-OV-3 ovarian): 15200 nM
GI50 (SF-268 CNS): 1490 nM
TGI (SF-268 CNS): 3300 nM
GI50 (786-0 renal): 1570 nM
TGI (786-0 renal): 3440 nM
GI50 (SK-MEL-28 melanoma): 1500 nM
TGI (SK-MEL-28 melanoma): 2970 nM
GI50 (SK-MEL-5 melanoma): 1670 nM
TGI (SK-MEL-5 melanoma): 3060 nM
GI50 (CCRF-CEM leukemia): 1020 nM
TGI (CCRF-CEM leukemia): 3230 nM
GI50 (RPMI-8226 leukemia): 1250 nM
TGI (RPMI-8226 leukemia): 3890 nM
GI50 (EKVX NSCLC): 1540 nM
TGI (EKVX NSCLC): 4770 nM
GI50 (MALME-3M melanoma): 1650 nM
TGI (MALME-3M melanoma): 3410 nM
GI50 (SNB-75 CNS): 873 nM
TGI (SNB-75 CNS): 2670 nM
GI50 (RXF 393 renal): 1200 nM
TGI (RXF 393 renal): 2650 nM
GI50 (HOP-62 NSCLC): 1760 nM
TGI (HOP-62 NSCLC): 3640 nM
GI50 (BT-549 breast): 2300 nM
TGI (BT-549 breast): 10700 nM
GI50 (MDA-MB-231 breast): 941 nM
TGI (MDA-MB-231 breast): 2490 nM
GI50 (NCI-H23 lung): 2020 nM
TGI (NCI-H23 lung): 5580 nM
GI50 (CAKI-1 renal): 1390 nM
TGI (CAKI-1 renal): 2890 nM
GI50 (HCT-15 colon): 627 nM
TGI (HCT-15 colon): 1470 nM
GI50 (SN12C renal): 3280 nM
TGI (SN12C renal): 9220 nM
GI50 (UACC-62 melanoma): 1620 nM
TGI (UACC-62 melanoma): 3440 nM
GI50 (COLO 205 colon): 1690 nM
TGI (COLO 205 colon): 3560 nM
GI50 (KM12 colon): 1420 nM
TGI (KM12 colon): 3090 nM
GI50 (NCI-H522 lung): 1770 nM
TGI (NCI-H522 lung): 3810 nM
GI50 (DU-145 prostate): 1710 nM
TGI (DU-145 prostate): 5050 nM

COc1ccc(/C(Cl)=C(\CNc2ccccn2)c2ccccc2)cc1OC
TGI (LOX IMVI melanoma): > 100000 nM
TGI (U251 CNS): > 100000 nM
TGI (A498 renal): > 100000 nM
TGI (ACHN renal): > 100000 nM
TGI (NCI-H226 lung): > 100000 nM
TGI (NCI/ADR-RES ovarian): > 100000 nM
TGI (HS 578T breast): > 100000 nM
TGI (TK-10 renal): > 100000 nM
TGI (UO-31 renal): > 100000 nM
TGI (PC-3 prostate): > 100000 nM
TGI (T-47D breast): > 100000 nM
TGI (MDA-MB-435): > 100000 nM
TGI (SF-295 CNS): > 100000 nM
TGI (SF-539 CNS): > 100000 nM
TGI (SR leukemia): > 100000 nM
TGI (UACC-257 melanoma): > 100000 nM
TGI (SK-MEL-2 melanoma): > 100000 nM
TGI (HL-60(TB) leukemia): > 100000 nM
TGI (HCC-2998 colon): > 100000 nM
TGI (SNB-19 CNS): > 100000 nM
TGI (IGROV1 ovarian): > 100000 nM
TGI (K-562 leukemia): > 100000 nM
TGI (MDA-N): > 100000 nM
TGI (HT29 colon): > 100000 nM
TGI (SW-620 colon): > 100000 nM
TGI (MOLT-4 leukemia): > 100000 nM
TGI (A549 NSCLC): > 100000 nM
TGI (NCI-H460 lung): > 100000 nM
TGI (OVCAR-4 ovarian): > 100000 nM
TGI (HOP-92 NSCLC): > 100000 nM
TGI (OVCAR-5 ovarian): > 100000 nM
TGI (OVCAR-8 ovarian): > 100000 nM
TGI (HCT-116 colon): > 100000 nM
TGI (SK-OV-3 ovarian): > 100000 nM
TGI (SF-268 CNS): > 100000 nM
TGI (786-0 renal): > 100000 nM
TGI (SK-MEL-28 melanoma): > 100000 nM
TGI (SK-MEL-5 melanoma): > 100000 nM
TGI (CCRF-CEM leukemia): > 100000 nM
TGI (RPMI-8226 leukemia): > 100000 nM
TGI (EKVX NSCLC): > 100000 nM
TGI (MALME-3M melanoma): > 100000 nM
TGI (SNB-75 CNS): > 100000 nM
TGI (RXF 393 renal): > 100000 nM
TGI (HOP-62 NSCLC): > 100000 nM
TGI (MDA-MB-231 breast): > 100000 nM
TGI (NCI-H23 lung): > 100000 nM
TGI (CAKI-1 renal): > 100000 nM
TGI (HCT-15 colon): > 100000 nM
TGI (SN12C renal): > 100000 nM
TGI (UACC-62 melanoma): > 100000 nM
TGI (COLO 205 colon): > 100000 nM
TGI (KM12 colon): > 100000 nM
TGI (NCI-H522 lung): > 100000 nM
TGI (DU-145 prostate): > 100000 nM
